# Measurements taken from patent US20200030262A1, “THERAPEUTIC SIGMA 1 RECEPTOR AGONISTS FOR TREATING LONG QT SYNDROME TYPE 1, TYPE 2, TYPE 6, TYPE 8 AND RELATED CHANNELOPATHIES” (priority 2017, published 2020).
# How the values were obtained:
# [1] = test system: Timothy syndrome cardiomyocytes; experiment: Analysis of cardiomyocyte contractions, Timothy syndrome cardiomyocytes; type: cell-based, human; settings: for effects on Timothy syndrome cardiomyocytes: contraction irregularity and beating rate; for contraction irregularity / spontaneous beating rate: 5 μM, 2 hours; for contraction irregularity, long-term repeated treatment / spontaneous beating rate, long-term repeated treatment: 10 μM twice a day for seven days; for rhythmic contraction and cell survival: 10 μM, 7 days, vs untreated control group at day 27
# Method: […] The contraction analysis was performed as reported previously (Yazawa et al., 2011). The movies were taken before the treatment, and 2 hours after the treatment of each compound on the intact monolayer Timothy syndrome cardiomyocytes. The contraction rate and the irregularity value of each sample before and after treatment were compared using paired Student t-test.
# [2] = target: Sigma-1R (Homo sapiens, UniProt Q99720); settings: cited from earlier work
# [3] = test system: Timothy syndrome cardiomyocytes; experiment: Current-clamp action potential recordings in Timothy syndrome cardiomyocytes; type: cell-based, human; settings: 2 hr; for paced action potential duration: paced 0.2 Hz
# Method: The Timothy syndrome and control iPSCs were differentiated into cardiomyocytes following a protocol reported previously (Song et al., 2015). The cardiomyocytes were dissociated into single cells for whole-cell patch-clamp recordings at day 31 and used for patch clamping between day 35 and 45. Whole-cell patch-clamp recordings of iPSC-derived cardiomyocytes were conducted using a MultiClap 700B patch-clamp amplifier (Molecular Devices) and an inverted microscope equipped with differential interface optics (Nikon, Ti-U). The glass pipettes were prepared using borosilicate glass (Sutter Instrument, BF150-110-10) using a micropipette puller (Sutter Instrument, Model P-97). Voltage-clamp measurements were conducted using an extracellular solution consisting of 5 mM BaCl2, 160 mM TEA and 10 mM HEPES (pH7.4 at 25° C.) and a pipette solution of 125 mM CsCl, 0.1 mM CaCl2, 10 mM EGTA, 1 mM MgCl2, 4 mM MgATP and 10 mM HEPES (pH 7.4 with CsOH at 25° C.). The protocol for voltage-clamp recordings was that cells were held at −90 mV and then depolarized to −10 mV for 400 ms at a rate of 0.1 Hz for the Ba^2+ current recordings; cells were held at −90 mV, stimulated with a 2-s family of pulses from −90 to +20 for the current-voltage relationship of the Ba^2+ currents. The recordings were conducted under room temperature. […] The recordings were conducted at 37° C. Cardiac action potentials were stimulated (2 ms, 1 nA) in current clamp mode at 37° C. (0.2 or 0.5 Hz). Recorded action potentials were analyzed using Clampfit 10.4 (Axon Instruments). Control recordings were obtained from cardiomyocytes without treatment.
# Patch-Clamp Electrophysiology of the cardiomyocytes was done as described in Example 1.
# [4] = test system: Timothy syndrome cardiomyocytes; experiment: Calcium imaging (FluoForte) of spontaneous calcium transients in Timothy syndrome cardiomyocytes; type: cell-based, human; settings: 5 μM, 30 min
# Method: (§1) The Nikon automatic microscope (Nikon Eclipse TiE with a motorized stage) connected to sCMOS camera (Andor Zyla sCMOS 4.2 MP) together with a stage top incubator (at 37° C., 5% CO2 and 20% O2, controlled by TOKAI HIT Hypoxia gas delivery system) were used for this experiment. Nikon objective lens 40× (Nikon CFI Plan Apo Lambda, NA 0.95) was used for single cell recordings and the cardiomyocyte culture media was used as bath solution. The cells were loaded with FluoForte calcium dye for calcium imaging following the manufacturer's instruction (ENZ-51016, Enzo Life Sciences). […] Thirty minutes after the treatment of Fluvoxamine or PRE-084, a second recording was acquired from the same cell. The calcium transient duration and the calcium transient half (50%) decay time from the recordings before and after treatment were analyzed. Paired student's t-test was used for statistics.
# [5] = test system: control cardiomyocytes; experiment: Analysis of cardiomyocyte contractions, healthy control cardiomyocytes; type: cell-based, human; settings: 5 μM, 2 hours
# [6] = test system: control cardiomyocytes; experiment: Calcium imaging of spontaneous calcium transients in control cardiomyocytes; type: cell-based, human; settings: 5 μM, 30 min
# Method: as §1
# [7] = test system: sodium channels; settings: reported (Johannessen et al., 2009); cited from earlier work
# [8] = test system: LQTS1 cardiomyocytes; experiment: Action potential recordings in LQTS1 cardiomyocytes; type: cell-based, human
# Method: (§2) The Timothy syndrome and control iPSCs were differentiated into cardiomyocytes following a protocol reported previously (Song et al., 2015). The cardiomyocytes were dissociated into single cells for whole-cell patch-clamp recordings at day 31 and used for patch clamping between day 35 and 45. Whole-cell patch-clamp recordings of iPSC-derived cardiomyocytes were conducted using a MultiClap 700B patch-clamp amplifier (Molecular Devices) and an inverted microscope equipped with differential interface optics (Nikon, Ti-U). The glass pipettes were prepared using borosilicate glass (Sutter Instrument, BF150-110-10) using a micropipette puller (Sutter Instrument, Model P-97). Voltage-clamp measurements were conducted using an extracellular solution consisting of 5 mM BaCl2, 160 mM TEA and 10 mM HEPES (pH7.4 at 25° C.) and a pipette solution of 125 mM CsCl, 0.1 mM CaCl2, 10 mM EGTA, 1 mM MgCl2, 4 mM MgATP and 10 mM HEPES (pH 7.4 with CsOH at 25° C.). The protocol for voltage-clamp recordings was that cells were held at −90 mV and then depolarized to −10 mV for 400 ms at a rate of 0.1 Hz for the Ba^2+ current recordings; cells were held at −90 mV, stimulated with a 2-s family of pulses from −90 to +20 for the current-voltage relationship of the Ba^2+ currents. The recordings were conducted under room temperature. […] Recorded action potentials were analyzed using Clampfit 10.4 (Axon Instruments). […]
# [9] = test system: isogenic control (Ctrl) iPSC-derived cardiomyocytes; experiment: Paced action potential recordings in isogenic control iPSC-derived cardiomyocytes; type: cell-based, human; settings: 5 uM, 2 hr
# Method: as §2
# [10] = test system: Timothy syndrome iPSC-derived cardiomyocytes; experiment: GCaMP6f-based calcium imaging in Timothy syndrome iPSC-derived cardiomyocytes; type: cell-based, human; settings: 5 uM, 2 hr
# [11] = target: T1, hERG current IKr (Homo sapiens, UniProt Q12809); type: cell-based; settings: 5 uM, 2 hr; E-4031-sensitive current
# T1 construct: hERG current IKr in Timothy syndrome iPSC-derived cardiomyocytes; endogenous in cells; host or cells: Timothy syndrome iPSC-derived cardiomyocytes
# Method: (§3) The following pulse protocol was used: 5-s voltage clamp applied from 10 mV to 50 mV (Δ20 mV, holding at −40 mV, 0.1 Hz, at 25° C.). After recordings, the extracellular solution was switched to one containing 1 μM E-4031 (TOCRIS). E-4031-sensitive current was measured and analyzed as IKr current using Clampfit 10.4 (Axon Instruments).
# [12] = test system: long QT syndrome type 2 iPSC-derived cardiomyocytes; experiment: Action potential recordings in long QT syndrome type 2 iPSC-derived cardiomyocytes; type: cell-based, human; settings: 5 uM, 2 hr
# Method: as §2
# [13] = test system: hERG current IKr; type: cell-based, human; settings: 5 uM, 2 hr; E-4031-sensitive current
# Method: as §3
# [14] = test system: Timothy syndrome mice; experiment: Mouse electrocardiography, Timothy syndrome mouse model; type: in vivo; settings: in drinking water
# Method: A model mouse for Timothy Syndrome was generated by targeting the Rosa26 locus with a G406R mutant in the calcium channel Cacna1c gene (see FIG. 10A). The experimental design for inducing the expression of Timothy syndrome mutant with Dxm treatment (about 28 mg/kg) is shown in FIG. 10B.
# (§4) Subcutaneous 4-lead electrocardiograms of isoflurane-anesthetized 12-week old mice were performed using emka ECG and recorded using iox 2.8.0.19. Recordings were conducted a day 4 and 11 after tamoxifen (Sigma-Aldrich, 50 μg/B.W.(g)/day/mouse, i.e., approximately 1 mg/day/mouse) was administrated at day 1-3. Dxm was resolved to drinking water. Total amount of taken dextromethorphan was estimated based on water consumption in each mouse (23-44 mg/kg). To obtain accurate amount of dextromethorphan administration in mice, the concentration of dextromethorphan in the plasma was measured and analyzed at Columbia University Biomarkers Core Laboratory. RR and QT intervals were measured manually using ecgAUTO v2.8.1.27, Excel and Prism 6/7 software.
# [15] = test system: control littermate mice; experiment: Mouse electrocardiography, control littermate mice; type: in vivo; settings: in drinking water
# Method: as §4
# [16] = Dxm concentration in the plasma of mice; type: in vivo, mouse; settings: adult normal mice, Dxm in drinking water
# Method: as §4
# [17] = test system: LQTS6 cardiomyocytes; experiment: Paced action potential recordings in LQTS6 cardiomyocytes; type: cell-based, human; settings: 5 μM, 2 hr; paced 0.5 Hz; M54T mutation in MiRP1
# Chain of Sigma-1R (Q99720 whole entry, species assumed): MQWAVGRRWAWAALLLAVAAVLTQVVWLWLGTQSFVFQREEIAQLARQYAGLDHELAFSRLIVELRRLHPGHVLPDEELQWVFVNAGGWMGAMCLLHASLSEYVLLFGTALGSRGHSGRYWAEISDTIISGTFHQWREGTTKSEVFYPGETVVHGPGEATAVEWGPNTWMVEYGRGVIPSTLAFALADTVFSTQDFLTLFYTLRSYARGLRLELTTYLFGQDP
# T1 sequence (Q12809 whole entry): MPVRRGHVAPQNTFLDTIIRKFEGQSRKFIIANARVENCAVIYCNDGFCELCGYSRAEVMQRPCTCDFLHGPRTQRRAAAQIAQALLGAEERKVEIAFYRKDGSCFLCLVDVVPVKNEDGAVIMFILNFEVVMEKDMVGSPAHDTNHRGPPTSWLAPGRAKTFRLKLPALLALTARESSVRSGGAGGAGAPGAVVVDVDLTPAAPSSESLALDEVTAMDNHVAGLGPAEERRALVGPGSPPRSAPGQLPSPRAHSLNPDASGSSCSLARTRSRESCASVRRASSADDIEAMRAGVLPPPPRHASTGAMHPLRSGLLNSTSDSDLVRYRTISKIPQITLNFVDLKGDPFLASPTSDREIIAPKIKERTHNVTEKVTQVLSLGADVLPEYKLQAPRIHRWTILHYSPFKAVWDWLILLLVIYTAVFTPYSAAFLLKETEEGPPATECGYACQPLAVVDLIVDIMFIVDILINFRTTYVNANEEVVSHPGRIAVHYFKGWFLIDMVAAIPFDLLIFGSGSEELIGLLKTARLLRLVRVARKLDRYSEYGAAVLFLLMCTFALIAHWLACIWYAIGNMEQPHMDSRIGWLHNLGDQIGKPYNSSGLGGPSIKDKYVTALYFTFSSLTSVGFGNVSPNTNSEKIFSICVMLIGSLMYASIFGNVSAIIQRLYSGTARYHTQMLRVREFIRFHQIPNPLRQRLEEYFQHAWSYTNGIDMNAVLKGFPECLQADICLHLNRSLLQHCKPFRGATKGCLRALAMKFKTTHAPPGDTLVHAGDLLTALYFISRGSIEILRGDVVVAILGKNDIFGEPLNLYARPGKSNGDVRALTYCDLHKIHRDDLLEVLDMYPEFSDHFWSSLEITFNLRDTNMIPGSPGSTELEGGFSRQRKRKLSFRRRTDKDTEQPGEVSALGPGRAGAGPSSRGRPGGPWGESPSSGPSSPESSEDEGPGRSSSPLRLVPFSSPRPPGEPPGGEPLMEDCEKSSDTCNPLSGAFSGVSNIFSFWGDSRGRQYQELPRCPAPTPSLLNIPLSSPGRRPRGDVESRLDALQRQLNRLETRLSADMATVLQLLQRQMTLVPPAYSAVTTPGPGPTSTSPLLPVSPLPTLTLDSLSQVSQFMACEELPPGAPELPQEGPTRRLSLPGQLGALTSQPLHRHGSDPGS
smiles,measurement,setting,value
Fc1ccc([C@@H]2CCNC[C@H]2COc2ccc3c(c2)OCO3)cc1 [paroxetine],effects on Timothy syndrome cardiomyocytes,[1],no beneficial effects
same,affinity for sigma 1 receptor,[2],low affinity
O=C(OCCN1CCOCC1)C1(c2ccccc2)CCCCC1 [PRE-084],contraction irregularity,[1],decreased
same,spontaneous beating rate,[1],significantly increased
same,"contraction irregularity, long-term repeated treatment",[1],reduced
same,"spontaneous beating rate, long-term repeated treatment",[1],significantly enhanced
same,rhythmic contraction and cell survival,[1],enhanced
same,abnormal spontaneous action potentials,[3]; 5 μM,rescued
same,paced action potential duration,[3]; 5 μM,rescued
same,abnormal spontaneous calcium transients,[4],alleviated
same,spontaneous calcium transient duration,[4],significantly reduced
same,spontaneous calcium transient half decay time,[4],significantly reduced
same,contraction rhythmicity of control cardiomyocytes,[5],did not significantly affect
same,spontaneous beating rate of control cardiomyocytes,[5],significantly enhanced
same,calcium transient duration in control cardiomyocytes,[6],did not significantly affect
same,calcium transient half decay time in control cardiomyocytes,[6],did not significantly affect
same,normal calcium transients in control cardiomyocytes,[6],did not significantly affect
same,effects on sodium channels,[7],little effects
COc1ccc(CCN2CCN(CCCc3ccccc3)CC2)cc1OC [SA4503],beating rate or contraction irregularity,[1]; 0.1 μM,no obvious improvement
same,contractions of Timothy syndrome cardiomyocytes,[1]; dose between 1 μM to 5 μM,stopped the contractions
COc1ccc2c(c1)[C@]13CCCC[C@@H]1[C@H](C2)N(C)CC3 [dextromethorphan],action potential duration (APD90) in Timothy syndrome iPSC-derived cardiomyocytes,"[3]; 5 uM, paced",significantly shortened
same,action potential duration in long QT syndrome type 1 iPSC-derived cardiomyocytes,[8]; treated vs untreated,significantly shortened
same,action potential duration (APD90) in isogenic control cells,[9],not changed
same,cardiac transient duration,[10],significantly shortened
same,cardiac transient frequency,[10],significantly increased
same,IKr current in Timothy syndrome iPSC-derived cardiomyocytes,[11],significantly increased
same,action potential duration in long QT syndrome type 2 iPSC-derived cardiomyocytes,[12],significantly shortened
same,IKr current in long QT syndrome type 2 iPSC-derived cardiomyocytes,[13],significantly increased
same,QT intervals in Timothy syndrome mice,"[14]; approximately 28 mg/kg, day 4",significantly shortened
same,QT intervals in Timothy syndrome mice,[14]; day 11,significantly shortened
same,QT intervals in control littermate mice,[15],no significant effect
same,plasma concentration of Dxm,[16],5 to 10 ng/mL
same,Ki,"[2]; read-out: Ki (Sigma-1R), known as Sigma-1R agonist",0.15 µM
CC(C)CC(=O)Nc1[nH]nc2c1CN(C(=O)C1CCN(C)CC1)C2(C)C [PHA-793887],effects on Timothy syndrome cardiomyocytes,[1],positive effects
COCCCC/C(=N\OCCN)c1ccc(C(F)(F)F)cc1 [Fluvoxamine],contraction irregularity,[1],significantly decreased
same,spontaneous beating rate,[1],increased
same,"contraction irregularity, long-term repeated treatment",[1],reduced
same,"spontaneous beating rate, long-term repeated treatment",[1],significantly enhanced
same,rhythmic contraction and cell survival,[1],enhanced
same,paced action potential duration,[3]; 5 μM,reduced
same,abnormal spontaneous calcium transients,[4],alleviated
same,spontaneous calcium transient duration,[4],significantly reduced
same,spontaneous calcium transient half decay time,[4],significantly reduced
same,contraction rhythmicity of control cardiomyocytes,[5],did not significantly affect
same,spontaneous beating rate of control cardiomyocytes,[5],significantly enhanced
same,calcium transient duration in control cardiomyocytes,[6],did not significantly affect
same,calcium transient half decay time in control cardiomyocytes,[6],did not significantly affect
same,normal calcium transients in control cardiomyocytes,[6],did not significantly affect
same,prolonged paced action potentials (APD90) in LQTS1 cardiomyocytes,"[8]; 5 μM, 2 hr, paced 0.5 Hz, G269S mutation in KCNQ1",significantly reduced
same,prolonged paced action potentials (APD90) in LQTS6 cardiomyocytes,[17],significantly reduced
COc1ccc(CNc2nc(NCc3ccc(OC)cc3)c3ncn(C4CCCCC4)c3n2)cc1 [Myoseverin-B],effects on Timothy syndrome cardiomyocytes,[1],positive effects
CCCN(CCC)CCc1ccc(OC)c(OCCc2ccccc2)c1 [NE-100],beneficial effects of Fluvoxamine under co-treatment with NE-100,"[1]; Fluvoxamine 5 μM + NE-100 5 μM, 2 hr",blocked
